# Reference: patent publication US20060111305A1, “Metabolites of certain [1,4]diazepino[6,7,1-ij]quinoline derivatives and methods of preparation and use thereof” (Wyeth, priority 2004, published 2006)
# Where two headings read alike, the source gives them in different places.
# Tests used:
# [1] = Rat brain radioactivity content and metabolite profiles after single oral 5 mg/kg [14C]DCDQ; assay type: in vivo, Sprague-Dawley rats
# Experimental: At sacrifice, blood samples were collected by cardiac puncture into tubes containing EDTA as the anticoagulant and placing them on ice. Aliquots of 50 μL were removed for combustion and determination of radioactivity content. Plasma was immediately obtained from the remaining blood by centrifugation at 4° C. Brains were excised after perfusion with 50 mL of chilled sterile saline. Urine samples were collected on dry ice at intervals of 0-8 and 8-24 hour post-dosing. Feces were collected at intervals of 0-8 and 8-24 hr post-dosing at room temperature and were homogenized as described previously. The biological specimens and aliquots of the dosing solution at pre- and post-dose were stored at approximately −70° C. until analyzed.
# Brain and fecal samples were weighed and homogenized in water at volume-to-weight ratios of about 1:1 and 5:1, respectively. Blood aliquots (50 μL), brain homogenates (0.1 gram) and fecal homogenates (0.2 gram) were placed on Combusto-cones with Combusto-pads and combusted. A model 307 Tri-Carb Sample Oxidizer, equipped with an Oximate-80 Robotic Automatic Sampler (Perkin Elmer), was used for combustion. The liberated ^14CO2 was trapped with Carbo-Sorb E carbon dioxide absorber, mixed with PermaFluor® E+ liquid scintillation cocktail, and counted in a Tri-Carb Model 3100 TR/LL liquid scintillation counter (Perkin Elmer). The oxidation efficiency of the oxidizer was 98.2%.
# Brain homogenates were analyzed for metabolite profiles. Aliquots of 1 gram of brain homogenates were mixed with an equal volume of methanol, placed on ice for about 10 minutes and centrifuged. The supernatant was transferred to a clean tube. The residue was extracted three times with 1 mL methanol. The supernatants of each sample were combined, evaporated to about 0.5 mL, and centrifuged. Extraction efficiency was determined by analyzing aliquots of 10 μL of the supernatant for radioactivity. An aliquot (100-200 μL) of the supernatant was analyzed by HPLC with radioactivity flow detection for profiling. Samples were also analyzed by LC/MS to characterize the radioactive peaks.
# (§1) A Waters model 2690 HPLC system (Waters Corp., Milford, Mass.) with a built-in autosampler was used for analysis. Separations were accomplished on a Phenomenex Luna C18(2) column (150×2.0 mm, 5 μm) (Phenomenex, Torrance, Calif.). The sample chamber of the autosampler was maintained at 4° C., while the column was at ambient temperature of about 20° C. A variable wavelength UV detector set to monitor 250 nm and a Flo-One β Model A525 radioactivity detector described above were used for data acquisition. The HPLC mobile phase consisted of 10 mM ammonium acetate, pH 4.5 (A) and methanol (B), and was delivered at 0.2 mL/min. Chromatographic condition A was used for dose analysis, while condition B was used for analysis of urine and plasma, brain and fecal extracts.
# [2] = Dog fecal excretion and metabolite profiles after oral capsule of [14C]DCDQ; assay type: in vivo, beagle dogs
# Experimental: Blood samples were collected from the jugular vein at 2, 4, 8, 24 and 48 hour after dose administration into tubes containing potassium EDTA as the anticoagulant and then placed on ice. Aliquots of 50 μL were removed for combustion and determination of radioactivity content. Plasma was immediately obtained from the remaining blood by centrifugation at 4° C. Urine samples were collected into tubes on dry ice at intervals of 0-8, 8-24 and 24-48 hour post-dose. Fecal samples were collected at intervals of 0-8, 8-24 and 24-48 hour post-dose at room temperature, and were homogenized. The biological specimens were stored at approximately −70° C. until analysis.
# Feces were weighed and homogenized in water at a volume-to-weight ratio of about 5:1. Aliquots of blood (200 μL) and fecal homogenates (0.25-0.53 gram) were placed on Combusto-cones with Combusto-pads and combusted. A model 307 Tri-Carb sample oxidizer, equipped with an Oximate-80 robotic automatic sampler (Perkin Elmer), was used for combustion of blood and fecal samples. The liberated ^14CO2 was trapped with Carbo-Sorb E carbon dioxide absorber, mixed with PermaFluor® E+ liquid scintillation cocktail, and counted on a Tri-Carb Model 3100 TR/LL liquid scintillation counter (Perkin Elmer). The efficiency of combustion was 98.9%.
# Fecal homogenates were analyzed for metabolite profiles. Aliquots of 1 gram of fecal homogenate were mixed with 2 mL methanol, placed on ice for about 10 minutes and centrifuged. The supernatant was transferred to a clean tube. The residue was extracted three times with 2 mL of a water:methanol (3:7) mixture. The supernatants from each sample were combined, evaporated to about 1 mL, and centrifuged. Extraction efficiency was determined by analyzing aliquots of 10 μL of the supernatant for radioactivity. An aliquot (50-200 μL) of the supernatant was analyzed by HPLC with radioactivity flow detection for metabolite profiles. Samples were also analyzed by LC/MS to characterize the radioactive peaks.
# as §1, with “detector” for “detector described above”, “acetonitrile” for “methanol”
structure (smiles),measurement,setting,value
"c1cc2c3c(c1)[C@H]1CCC[C@H]1CN3CCNC2 [DCDQ, (9aR,12aS)-4,5,6,7,9,9a,10,11,12,12a-decahydro-cyclopenta[c][1,4]diazepine[6,7,1-ij]quinoline, reference compound]",Kp at 2 h,"[1]; Sprague-Dawley, rat, brain and plasma, oral, 5 mg/kg, male rats, 2 hr, read-out: Brain/Plasma Ratio, DCDQ",56.4 ± 11.5
same,Kp at 4 h,"[1]; Sprague-Dawley, rat, brain and plasma, oral, 5 mg/kg, male rats, 4 hr, read-out: Brain/Plasma Ratio, DCDQ",50.5 ± 8.88
same,concentration at 2 h,"[1]; Sprague-Dawley, rat, brain, oral, 5 mg/kg, female rats, 2 hr, mean ± S.D., N = 3, read-out: Brain concentration, DCDQ (estimated)",6080 ± 2170 ng/g
same,concentration at 8 h,"[1]; Sprague-Dawley, rat, brain, oral, 5 mg/kg, female rats, 8 hr, mean ± S.D., N = 3, read-out: Brain concentration, DCDQ (estimated)",2680 ± 660 ng/g
same,concentration at 2 h,"[1]; Sprague-Dawley, rat, brain, oral, 5 mg/kg, male rats, 2 hr, mean ± S.D., N = 3, read-out: Brain concentration, DCDQ (estimated)",4630 ± 1180 ng/g
same,concentration at 4 h,"[1]; Sprague-Dawley, rat, brain, oral, 5 mg/kg, male rats, 4 hr, mean ± S.D., N = 3, read-out: Brain concentration, DCDQ (estimated)",4470 ± 420 ng/g
same,concentration at 8 h,"[1]; Sprague-Dawley, rat, brain, oral, 5 mg/kg, male rats, 8 hr, mean ± S.D., N = 3, read-out: Brain concentration, DCDQ (estimated)",2930 ± 930 ng/g
same,Kp at 2 h,"[1]; Sprague-Dawley, rat, brain/plasma, oral, 5 mg/kg, female rats, 2 hr, read-out: Brain/Plasma Ratio, DCDQ",49.9 ± 14.3
same,Kp at 8 h,"[1]; Sprague-Dawley, rat, brain/plasma, oral, 5 mg/kg, female rats, 8 hr, read-out: Brain/Plasma Ratio, DCDQ",56.1 ± 17.8
same,Kp at 8 h,"[1]; Sprague-Dawley, rat, brain/plasma, oral, 5 mg/kg, male rats, 8 hr, read-out: Brain/Plasma Ratio, DCDQ",50.5 ± 11.4
same,Kp,"[1]; both sexes, Sprague-Dawley, rat, brain, oral, 5 mg/kg, independent of time or sex, 2 to 8 hour post-dose, read-out: average brain-to-plasma DCDQ ratio",49.9 to 56.1
same,% DCDQ of Brain Radioactivity,"[1]; female rats, 2 hr",95.2 ± 1.0%
same,% DCDQ of Brain Radioactivity,"[1]; female rats, 8 hr",94.1 ± 0.7%
same,% DCDQ of Brain Radioactivity,"[1]; male rats, 2 hr",90.4 ± 0.9%
same,% DCDQ of Brain Radioactivity,"[1]; male rats, 4 hr",90.4 ± 0.5%
same,% DCDQ of Brain Radioactivity,"[1]; male rats, 8 hr",90.0 ± 1.2%
"OC1[C@@H]2CCC[C@@H]2c2cccc3c2N1CCNC3 (stereo partly shown) [Metabolite M2, hydroxy DCDQ]",metabolite detected in feces,[2],detected
"O=C(O)[C@H]1O[C@@H](OC(=O)N2CCN3C[C@@H]4CCC[C@@H]4c4cccc(c43)C2)[C@H](O)[C@@H](O)[C@@H]1O [Metabolite M6, carbamoyl glucuronide of DCDQ]",metabolite detected in feces,[2],not detected
c1cc2c3c(c1)[C@H]1CCC[C@H]1CN3CCNC2 [[^14C]DCDQ],"Brain concentration of radioactivity, Total","[1]; female rats, 2 hr, mean ± S.D., N = 3",6.38 ± 2.22 μg equivalents/g
same,"Brain concentration of radioactivity, Total","[1]; female rats, 8 hr, mean ± S.D., N = 3",2.85 ± 0.68 μg equivalents/g
same,"Brain concentration of radioactivity, Total","[1]; male rats, 2 hr, mean ± S.D., N = 3",5.12 ± 1.28 μg equivalents/g
same,"Brain concentration of radioactivity, Total","[1]; male rats, 4 hr, mean ± S.D., N = 3",4.94 ± 0.44 μg equivalents/g
same,"Brain concentration of radioactivity, Total","[1]; male rats, 8 hr, mean ± S.D., N = 3",3.25 ± 0.99 μg equivalents/g
same,Brain radioactivity concentration,"[1]; male rats, 24 hour post-dose",0.037 ± 0.002 µg equivalents/g tissue
same,"Brain concentration of radioactivity, Total","[1]; male rats, 24 hr, mean ± S.D., N = 3",0.04 ± 0.00 μg equivalents/g
